Assay results as given in ChEMBL document CHEMBL4152312, “Identification of fused pyrimidines as interleukin 17 secretion inhibitors” (Eur J Med Chem, 2018).

Key:
[1] = biological target: Macrophage colony-stimulating factor 1 receptor (Homo sapiens) (UniProt P07333); assay: Inhibition of recombinant human His-tagged CSF1R (538 to 910 residues) expressed in baculovirus expression system at 500 nM by Z-LYTE assay relative to control
[2] = biological target: Tyrosine-protein kinase ABL1 (Homo sapiens) (UniProt P00519); assay: Inhibition of recombinant human full length His-tagged ABL1 expressed in baculovirus expression system at 500 nM by Z-LYTE assay relative to control
PBMC = assay: Cytotoxicity against human PBMC assessed as induction of cell death by cell Titer-Glo assay; type: cell-based
[3] = biological target: PI3-kinase p110-delta/p85-alpha (Homo sapiens) (UniProt P27986+O00329); assay: Inhibition of PI3K p110delta/p85alpha (unknown origin) at 500 nM by Z-LYTE assay relative to control; type: protein-complex assay
[4] = biological target: Tyrosine-protein kinase BTK (Homo sapiens) (UniProt Q06187); assay: Inhibition of recombinant human full length His-tagged BTK expressed in baculovirus expression system at 500 nM by Z-LYTE assay relative to control
[5] = biological target: Serine/threonine-protein kinase mTOR (Homo sapiens) (UniProt P42345); assay: Inhibition of recombinant human GST-tagged mTOR cytoplasmic domain (1360 to 2549 residues) expressed in baculovirus expression system at 500 nM by Z-LYTE assay relative to control
[6] = biological target: Protein kinase C theta type (Homo sapiens) (UniProt Q04759); assay: Inhibition of recombinant full length human His-tagged PKCtheta expressed in baculovirus expression system at 500 nM by Z-LYTE assay relative to control
[7] = biological target: Mitogen-activated protein kinase 3 (Homo sapiens) (UniProt P27361); assay: Inhibition of recombinant human full length GST-tagged ERK1 expressed in Escherichia coli at 500 nM by Z-LYTE assay relative to control
Mitogen-activated protein kinase 3 (Homo sapiens), sequence (P27361 whole entry, the tested form may be a part): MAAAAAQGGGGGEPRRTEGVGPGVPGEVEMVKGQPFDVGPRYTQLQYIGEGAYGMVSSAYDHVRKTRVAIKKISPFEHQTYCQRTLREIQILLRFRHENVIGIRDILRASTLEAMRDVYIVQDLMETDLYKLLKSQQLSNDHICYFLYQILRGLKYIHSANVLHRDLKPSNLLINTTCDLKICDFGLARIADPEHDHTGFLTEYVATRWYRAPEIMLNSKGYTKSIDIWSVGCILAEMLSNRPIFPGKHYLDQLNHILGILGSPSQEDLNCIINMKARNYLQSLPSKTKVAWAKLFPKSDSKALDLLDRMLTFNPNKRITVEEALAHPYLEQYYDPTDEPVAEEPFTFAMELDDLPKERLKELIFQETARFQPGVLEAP

[8] = biological target: Receptor tyrosine-protein kinase erbB-4 (Homo sapiens) (UniProt Q15303); assay: Inhibition of recombinant humans GST-tagged ERBB4 cytoplasmic domain expressed in baculovirus expression system at 500 nM by Z-LYTE assay relative to control
[9] = biological target: Mitogen-activated protein kinase 11 (Homo sapiens) (UniProt Q15759); assay: Inhibition of recombinant human full length His-tagged p38-beta expressed in baculovirus expression system at 500 nM by Z-LYTE assay relative to control
Mitogen-activated protein kinase 11 (Homo sapiens), sequence (Q15759 whole entry, the tested form may be a part): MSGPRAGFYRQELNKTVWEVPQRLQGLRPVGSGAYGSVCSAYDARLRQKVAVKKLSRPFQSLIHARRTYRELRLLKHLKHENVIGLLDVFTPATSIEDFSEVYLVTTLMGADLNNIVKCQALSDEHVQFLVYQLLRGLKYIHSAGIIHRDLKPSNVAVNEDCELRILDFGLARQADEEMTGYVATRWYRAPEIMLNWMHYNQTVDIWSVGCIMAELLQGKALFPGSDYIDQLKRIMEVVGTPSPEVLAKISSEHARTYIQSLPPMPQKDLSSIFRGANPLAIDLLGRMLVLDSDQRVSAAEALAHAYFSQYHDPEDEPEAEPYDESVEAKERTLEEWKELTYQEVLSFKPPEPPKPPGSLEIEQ

[10] = biological target: Rho-associated protein kinase 1 (Homo sapiens) (UniProt Q13464); assay: Inhibition of recombinant human GST-tagged ROCK1 cytoplasmic domain expressed in baculovirus expression system at 500 nM by Z-LYTE assay relative to control
[11] = biological target: Receptor-type tyrosine-protein kinase FLT3 (Homo sapiens) (UniProt P36888); assay: Inhibition of recombinant human His-tagged FLT3 cytoplasmic domain (564 to 958 residues) expressed in baculovirus expression system at 500 nM by Z-LYTE assay relative to control
Receptor-type tyrosine-protein kinase FLT3 (Homo sapiens), sequence (P36888 whole entry, the tested form may be a part): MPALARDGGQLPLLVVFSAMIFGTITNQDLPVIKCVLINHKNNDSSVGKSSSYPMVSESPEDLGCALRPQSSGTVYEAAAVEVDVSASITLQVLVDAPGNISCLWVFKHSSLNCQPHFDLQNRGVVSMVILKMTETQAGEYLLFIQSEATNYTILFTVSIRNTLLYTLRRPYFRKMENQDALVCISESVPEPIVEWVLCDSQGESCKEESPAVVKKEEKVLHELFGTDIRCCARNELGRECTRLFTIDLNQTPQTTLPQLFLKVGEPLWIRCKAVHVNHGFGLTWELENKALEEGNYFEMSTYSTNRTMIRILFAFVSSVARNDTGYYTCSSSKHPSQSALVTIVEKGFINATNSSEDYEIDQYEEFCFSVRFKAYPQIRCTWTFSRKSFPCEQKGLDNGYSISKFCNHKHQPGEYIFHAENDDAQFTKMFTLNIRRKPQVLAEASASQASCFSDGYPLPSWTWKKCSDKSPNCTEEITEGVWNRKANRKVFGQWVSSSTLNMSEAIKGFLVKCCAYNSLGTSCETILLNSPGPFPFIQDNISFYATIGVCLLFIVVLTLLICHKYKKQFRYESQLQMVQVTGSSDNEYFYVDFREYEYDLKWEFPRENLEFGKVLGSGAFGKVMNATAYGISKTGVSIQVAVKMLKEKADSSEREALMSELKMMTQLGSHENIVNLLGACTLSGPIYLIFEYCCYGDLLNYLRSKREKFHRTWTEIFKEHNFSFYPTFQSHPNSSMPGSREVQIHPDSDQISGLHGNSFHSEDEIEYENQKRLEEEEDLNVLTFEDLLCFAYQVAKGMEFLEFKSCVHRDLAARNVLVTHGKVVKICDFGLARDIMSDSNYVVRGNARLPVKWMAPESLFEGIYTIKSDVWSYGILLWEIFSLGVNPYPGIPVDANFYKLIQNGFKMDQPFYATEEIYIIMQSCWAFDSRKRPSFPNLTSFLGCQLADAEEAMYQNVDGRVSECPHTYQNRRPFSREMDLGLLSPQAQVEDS

[12] = biological target: Serine/threonine-protein kinase pim-1 (Homo sapiens) (UniProt P11309); assay: Inhibition of recombinant full length human His-tagged PIM1 expressed in baculovirus expression system at 500 nM by Z-LYTE assay relative to control
Serine/threonine-protein kinase pim-1 (Homo sapiens), sequence (P11309 whole entry, looked up): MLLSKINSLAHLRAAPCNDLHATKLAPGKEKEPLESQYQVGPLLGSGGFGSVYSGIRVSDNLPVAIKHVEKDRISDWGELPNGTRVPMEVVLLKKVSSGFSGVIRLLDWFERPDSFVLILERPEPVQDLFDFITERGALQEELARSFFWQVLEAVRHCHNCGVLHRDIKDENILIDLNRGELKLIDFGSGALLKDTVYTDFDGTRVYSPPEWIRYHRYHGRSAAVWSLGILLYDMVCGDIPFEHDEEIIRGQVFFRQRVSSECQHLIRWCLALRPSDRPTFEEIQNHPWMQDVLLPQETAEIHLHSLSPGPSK

[13] = biological target: Calcium/calmodulin-dependent protein kinase type 1G (Homo sapiens) (UniProt Q96NX5); assay: Inhibition of recombinant human full length GST-tagged CAMK1G expressed in insect cells at 500 nM by Z-LYTE assay relative to control
[14] = biological target: Protein kinase C beta type (Homo sapiens) (UniProt P05771); assay: Inhibition of recombinant full length human GST-tagged PKCbeta-1 expressed in insect cells at 500 nM by Z-LYTE assay relative to control
Protein kinase C beta type (Homo sapiens), sequence (P05771 2-671 limits assumed): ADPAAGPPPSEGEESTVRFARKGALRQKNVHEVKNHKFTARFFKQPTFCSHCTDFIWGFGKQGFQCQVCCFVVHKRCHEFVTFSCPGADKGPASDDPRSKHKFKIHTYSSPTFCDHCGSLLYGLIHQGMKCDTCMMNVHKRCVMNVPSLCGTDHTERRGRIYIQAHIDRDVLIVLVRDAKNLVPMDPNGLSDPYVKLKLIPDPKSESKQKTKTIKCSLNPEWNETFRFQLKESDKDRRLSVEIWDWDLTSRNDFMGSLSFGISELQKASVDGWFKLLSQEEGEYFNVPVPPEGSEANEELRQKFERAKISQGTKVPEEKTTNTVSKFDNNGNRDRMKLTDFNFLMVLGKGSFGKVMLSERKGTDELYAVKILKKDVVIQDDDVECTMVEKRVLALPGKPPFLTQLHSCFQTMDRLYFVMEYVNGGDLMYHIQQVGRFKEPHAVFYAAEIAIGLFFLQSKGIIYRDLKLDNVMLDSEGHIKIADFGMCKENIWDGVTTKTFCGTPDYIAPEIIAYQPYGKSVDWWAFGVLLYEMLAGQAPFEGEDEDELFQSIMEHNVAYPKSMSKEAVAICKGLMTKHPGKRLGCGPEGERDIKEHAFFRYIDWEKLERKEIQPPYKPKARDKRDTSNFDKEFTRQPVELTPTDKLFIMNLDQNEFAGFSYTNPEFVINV

[15] = biological target: PI3K p110 beta/p85 alpha (Homo sapiens) (UniProt P27986+P42338); assay: Inhibition of PI3K p110beta/p85alpha (unknown origin) at 500 nM by Z-LYTE assay relative to control; type: protein-complex assay
PI3K p110 beta/p85 alpha (Homo sapiens), sequence (P27986 2-724 limits assumed): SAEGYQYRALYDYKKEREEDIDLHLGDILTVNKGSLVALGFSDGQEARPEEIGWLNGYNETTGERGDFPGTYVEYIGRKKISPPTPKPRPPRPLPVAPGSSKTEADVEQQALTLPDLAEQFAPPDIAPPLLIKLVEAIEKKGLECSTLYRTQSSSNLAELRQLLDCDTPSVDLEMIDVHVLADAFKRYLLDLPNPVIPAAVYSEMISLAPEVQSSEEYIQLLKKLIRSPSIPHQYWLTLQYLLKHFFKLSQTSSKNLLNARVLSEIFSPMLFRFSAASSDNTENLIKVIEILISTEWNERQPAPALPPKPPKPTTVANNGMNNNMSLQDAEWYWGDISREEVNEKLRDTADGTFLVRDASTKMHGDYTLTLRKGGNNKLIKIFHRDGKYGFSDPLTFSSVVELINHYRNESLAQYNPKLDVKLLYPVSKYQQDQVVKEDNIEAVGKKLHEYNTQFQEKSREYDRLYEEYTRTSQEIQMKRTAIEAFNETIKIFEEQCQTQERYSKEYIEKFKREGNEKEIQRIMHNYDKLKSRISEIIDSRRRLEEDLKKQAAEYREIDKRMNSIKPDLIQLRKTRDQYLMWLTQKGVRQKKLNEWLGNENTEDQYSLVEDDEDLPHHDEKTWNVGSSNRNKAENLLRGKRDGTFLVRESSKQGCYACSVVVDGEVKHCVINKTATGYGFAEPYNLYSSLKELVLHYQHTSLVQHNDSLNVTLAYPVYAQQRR
PI3K p110 beta/p85 alpha (Homo sapiens), sequence (P42338 whole entry partner): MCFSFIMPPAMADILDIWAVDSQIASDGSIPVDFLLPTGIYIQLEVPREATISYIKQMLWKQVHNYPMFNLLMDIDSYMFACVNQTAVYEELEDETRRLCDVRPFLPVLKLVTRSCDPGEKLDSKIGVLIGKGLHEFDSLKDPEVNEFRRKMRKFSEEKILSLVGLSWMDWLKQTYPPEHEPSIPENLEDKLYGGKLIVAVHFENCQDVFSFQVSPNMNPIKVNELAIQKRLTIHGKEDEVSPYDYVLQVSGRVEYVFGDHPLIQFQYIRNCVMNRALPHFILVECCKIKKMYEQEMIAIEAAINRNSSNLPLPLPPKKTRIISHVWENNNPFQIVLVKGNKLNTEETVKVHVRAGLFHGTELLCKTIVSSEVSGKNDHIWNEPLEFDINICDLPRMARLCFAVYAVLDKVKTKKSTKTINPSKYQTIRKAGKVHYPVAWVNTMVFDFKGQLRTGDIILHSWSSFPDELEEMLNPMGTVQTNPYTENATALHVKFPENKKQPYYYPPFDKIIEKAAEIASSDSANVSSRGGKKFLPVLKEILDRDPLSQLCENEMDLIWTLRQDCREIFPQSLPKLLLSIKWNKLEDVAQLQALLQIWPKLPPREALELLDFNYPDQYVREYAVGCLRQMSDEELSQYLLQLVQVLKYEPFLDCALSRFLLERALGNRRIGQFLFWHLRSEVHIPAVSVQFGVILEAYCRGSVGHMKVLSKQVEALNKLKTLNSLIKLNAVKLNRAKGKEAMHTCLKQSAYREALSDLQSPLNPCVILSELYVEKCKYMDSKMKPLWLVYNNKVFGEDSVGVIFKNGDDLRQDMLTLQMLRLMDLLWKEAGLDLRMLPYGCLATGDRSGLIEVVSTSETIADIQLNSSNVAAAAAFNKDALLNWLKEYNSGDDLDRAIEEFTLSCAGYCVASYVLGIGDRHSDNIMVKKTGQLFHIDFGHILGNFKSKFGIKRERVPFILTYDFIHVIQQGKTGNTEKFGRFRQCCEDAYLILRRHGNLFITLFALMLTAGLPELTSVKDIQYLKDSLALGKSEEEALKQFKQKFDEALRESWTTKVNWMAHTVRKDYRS

[16] = biological target: Mitogen-activated protein kinase 14 (Homo sapiens) (UniProt Q16539); assay: Inhibition of recombinant human full length His-tagged p38-alpha expressed in baculovirus expression system at 500 nM by Z-LYTE assay relative to control
Mitogen-activated protein kinase 14 (Homo sapiens), sequence (Q16539 whole entry): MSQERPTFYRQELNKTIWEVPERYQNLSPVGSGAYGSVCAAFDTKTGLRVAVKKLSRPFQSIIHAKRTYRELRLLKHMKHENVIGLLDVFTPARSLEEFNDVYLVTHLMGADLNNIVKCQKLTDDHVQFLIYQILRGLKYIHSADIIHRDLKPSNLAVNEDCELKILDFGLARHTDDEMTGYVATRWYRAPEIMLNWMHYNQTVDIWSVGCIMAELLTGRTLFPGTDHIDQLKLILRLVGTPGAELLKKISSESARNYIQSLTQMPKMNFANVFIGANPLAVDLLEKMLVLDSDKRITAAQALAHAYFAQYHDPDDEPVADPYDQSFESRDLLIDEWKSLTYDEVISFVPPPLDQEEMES

[17] = biological target: Proto-oncogene tyrosine-protein kinase Src (Homo sapiens) (UniProt P12931); assay: Inhibition of human full length Src expressed in baculovirus expression system at 500 nM by Z-LYTE assay relative to control
[18] = biological target: Proto-oncogene tyrosine-protein kinase receptor Ret (Homo sapiens) (UniProt P07949); assay: Inhibition of recombinant human GST-tagged RET cytoplasmic domain expressed in baculovirus expression system at 500 nM by Z-LYTE assay relative to control
[19] = biological target: Tyrosine-protein kinase Yes (Homo sapiens) (UniProt P07947); assay: Inhibition of human full length GST-tagged YES1 expressed in baculovirus expression system at 500 nM by Z-LYTE assay relative to control
[20] = biological target: T1, Inhibitor of nuclear factor kappa-B kinase subunit epsilon (Homo sapiens) (UniProt Q14164); assay: Inhibition of recombinant full-length human GST-tagged IKKepsilon expressed in baculovirus expression system at 500 nM by Z-LYTE assay relative to control
T1 sequence (whole entry): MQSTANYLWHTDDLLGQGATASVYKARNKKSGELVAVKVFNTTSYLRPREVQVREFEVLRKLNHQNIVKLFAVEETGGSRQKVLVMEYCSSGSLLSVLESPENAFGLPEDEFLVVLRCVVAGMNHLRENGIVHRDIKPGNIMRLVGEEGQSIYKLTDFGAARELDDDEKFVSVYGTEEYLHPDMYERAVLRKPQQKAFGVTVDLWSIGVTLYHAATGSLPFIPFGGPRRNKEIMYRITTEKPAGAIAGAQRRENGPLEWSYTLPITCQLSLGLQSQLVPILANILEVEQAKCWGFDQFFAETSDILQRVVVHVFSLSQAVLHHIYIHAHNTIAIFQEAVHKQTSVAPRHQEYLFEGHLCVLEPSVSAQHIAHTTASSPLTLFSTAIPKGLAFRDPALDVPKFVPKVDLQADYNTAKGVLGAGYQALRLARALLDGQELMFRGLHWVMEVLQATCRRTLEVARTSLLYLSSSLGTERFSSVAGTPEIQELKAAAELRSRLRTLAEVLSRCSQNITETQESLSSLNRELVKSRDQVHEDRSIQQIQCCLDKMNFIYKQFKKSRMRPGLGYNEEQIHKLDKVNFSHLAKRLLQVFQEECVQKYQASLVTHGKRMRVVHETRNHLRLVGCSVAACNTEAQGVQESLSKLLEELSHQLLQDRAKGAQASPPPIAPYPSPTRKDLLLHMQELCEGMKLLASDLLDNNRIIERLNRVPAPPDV

[21] = biological target: Dual specificity mitogen-activated protein kinase kinase 1 (Homo sapiens) (UniProt Q02750); assay: Inhibition of recombinant human full length His-tagged MEK1 expressed in baculovirus expression system at 500 nM by Z-LYTE assay relative to control
[22] = biological target: Epidermal growth factor receptor (Homo sapiens) (UniProt P00533); assay: Inhibition of recombinant human GST-tagged wild-type EGFR cytoplasmic domain (668 to 1210 residues) expressed in baculovirus expression system at 500 nM by Z-LYTE assay relative to control

inhibition [1]	inhibition [2]	inhibition [4]	inhibition [5]	inhibition [6]	inhibition [7]	inhibition [8]	inhibition [9]	inhibition [10]	inhibition [11]	inhibition [12]	inhibition [13]	inhibition [14]	inhibition [15]	inhibition [16]	inhibition [18]	inhibition [19]	inhibition [20]	inhibition [21]	Compound	IC50 (PBMC)	further results
96%	84%	9%	12%	-2%	3%	71%	6%	-1%	43%	7%	0%	-1%	4%	17%	41%	81%	3%	10%	OCc1ccc(-c2cc3c(N[C@H](CO)c4ccccc4)ncnc3[nH]2)cc1	> 10 µM	inhibition [3]: 2%; inhibition [17]: 74%
39%	69%	62%	14%	8%	0%	3%	2%	17%	38%	9%	1%	8%	12%	8%	93%	65%	3%	6%	CN(C)CCn1cc(-c2cccc(O)c2)c2c(N)ncnc21	> 10 µM	inhibition [22]: 4%; inhibition [17]: 55%
31%	8%	5%	7%	-7%	6%	20%	4%	4%	16%	11%	1%	-9%	1%	8%	12%	13%	-1%	21%	OC[C@@H](Nc1ncnc2sc(-c3ccc(O)cc3)cc12)c1ccccc1	> 30 µM	inhibition [3]: 0%; inhibition [22]: 99%
21%	5%	3%	11%	6%	0%	12%	2%	3%	42%	1%	1%	14%	11%	3%	23%	9%	-2%	15%	CCC(=O)Nc1ccc(-c2c[nH]c3ncnc(N[C@H](C)c4ccccc4)c23)cc1	> 10 µM	inhibition [3]: 13%; inhibition [22]: 98%; inhibition [17]: 16%
